From patent US10168342B2, “Lipid probes and uses thereof” (THE SCRIPPS RESEARCH INSTITUTE, priority 2015, dated 2019) come the findings set out here.

Test in all cases: isoTOP-ABPP mapping of AEA-DA-modified peptides in Neuro2a cells
Holding throughout (assay type): cell-based

For assay [1], the target named is T1, AEA-DA-modified peptides in Neuro2a cells (Mus musculus, UniProt P10649).
T1 construct: endogenous in cells; host or cells: Neuro2a
Conditions: AEA-DA-modified peptide GSTM1 P10649 109-123, SEQ ID NO 44; probe 100 μM, 12 replicates.

Assay [2] deals with T2, AEA-DA-modified peptides in Neuro2a cells (Mus musculus, UniProt P18242).
T2 construct: endogenous in cells; host or cells: Neuro2a
Conditions: AEA-DA-modified peptide CTSD P18242 312-330, SEQ ID NO 27; probe 100 μM, 12 replicates.

The target in assay [3] is T3, AEA-DA-modified peptides in Neuro2a cells (Mus musculus, UniProt P61205).
T3 construct: endogenous in cells; host or cells: Neuro2a
The following applies: AEA-DA-modified peptide ARF3 P61205 39-60, SEQ ID NO 11; probe 100 μM, 12 replicates.

The target in assay [4] is T4, AEA-DA-modified peptides in Neuro2a cells (Mus musculus, UniProt P62814).
T4 construct: endogenous in cells; host or cells: Neuro2a
The following applies: AEA-DA-modified peptide ATP6V1B2 P62814 68-82, SEQ ID NO 20; probe 100 μM, 12 replicates.

The target in assay [5] is T5, AEA-DA-modified peptides in Neuro2a cells (Mus musculus, UniProt P81117).
T5 construct: endogenous in cells; host or cells: Neuro2a
Conditions: AEA-DA-modified peptide NUCB2 P81117 60-73, SEQ ID NO 72; probe 100 μM, 12 replicates.

The target of assay [6] is T6, AEA-DA-modified peptides in Neuro2a cells (Mus musculus, UniProt Q8C4B4).
T6 construct: endogenous in cells; host or cells: Neuro2a
Conditions: AEA-DA-modified peptide UNC119B Q8C4B4 142-151, SEQ ID NO 118; probe 100 μM, 12 replicates.

Assay [7] has as its target T7, AEA-DA-modified peptides in Neuro2a cells (Mus musculus, UniProt Q8CFE6).
T7 construct: endogenous in cells; host or cells: Neuro2a
Conditions: AEA-DA-modified peptide SLC38A2 Q8CFE6 171-179, SEQ ID NO 105; probe 100 μM, 12 replicates.

Assay [8] has as its target T8, AEA-DA-modified peptides in Neuro2a cells (Mus musculus, UniProt Q99KQ4).
T8 construct: endogenous in cells; host or cells: Neuro2a
The following applies: probe 100 μM, 12 replicates.

Assay [9] addresses T9, AEA-DA-modified peptides in Neuro2a cells (Mus musculus, UniProt Q99M71).
T9 construct: endogenous in cells; host or cells: Neuro2a
Conditions: AEA-DA-modified peptide EPDR1 Q99M71 171-182, SEQ ID NO 38; probe 100 μM, 12 replicates.

Assay [10] addresses T10, AEA-DA-modified peptides in Neuro2a cells (Mus musculus, UniProt Q9CZN7).
T10 construct: endogenous in cells; host or cells: Neuro2a
Conditions: probe 100 μM, 12 replicates.

Assay [11] deals with T11, AEA-DA-modified peptides in Neuro2a cells (Mus musculus, UniProt Q9Z2R6).
T11 construct: endogenous in cells; host or cells: Neuro2a
The following applies: AEA-DA-modified peptide UNC119 Q9Z2R6 131-140, SEQ ID NO 117; probe 100 μM, 12 replicates.

Each structure is given as a SMILES string.

T10 sequence (Q9CZN7 30-504): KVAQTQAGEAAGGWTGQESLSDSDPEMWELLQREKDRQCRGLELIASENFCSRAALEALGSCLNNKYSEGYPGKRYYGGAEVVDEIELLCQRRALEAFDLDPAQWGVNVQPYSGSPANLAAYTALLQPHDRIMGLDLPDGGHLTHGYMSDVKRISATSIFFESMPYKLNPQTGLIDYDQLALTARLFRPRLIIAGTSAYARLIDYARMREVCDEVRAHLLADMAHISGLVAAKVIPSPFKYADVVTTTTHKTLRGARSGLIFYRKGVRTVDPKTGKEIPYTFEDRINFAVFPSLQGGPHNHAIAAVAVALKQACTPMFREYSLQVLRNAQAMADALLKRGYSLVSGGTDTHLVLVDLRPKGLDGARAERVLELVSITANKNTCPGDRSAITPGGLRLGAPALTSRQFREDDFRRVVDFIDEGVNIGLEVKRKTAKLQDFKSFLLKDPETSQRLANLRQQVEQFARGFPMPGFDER
T8 sequence (Q99KQ4 whole entry): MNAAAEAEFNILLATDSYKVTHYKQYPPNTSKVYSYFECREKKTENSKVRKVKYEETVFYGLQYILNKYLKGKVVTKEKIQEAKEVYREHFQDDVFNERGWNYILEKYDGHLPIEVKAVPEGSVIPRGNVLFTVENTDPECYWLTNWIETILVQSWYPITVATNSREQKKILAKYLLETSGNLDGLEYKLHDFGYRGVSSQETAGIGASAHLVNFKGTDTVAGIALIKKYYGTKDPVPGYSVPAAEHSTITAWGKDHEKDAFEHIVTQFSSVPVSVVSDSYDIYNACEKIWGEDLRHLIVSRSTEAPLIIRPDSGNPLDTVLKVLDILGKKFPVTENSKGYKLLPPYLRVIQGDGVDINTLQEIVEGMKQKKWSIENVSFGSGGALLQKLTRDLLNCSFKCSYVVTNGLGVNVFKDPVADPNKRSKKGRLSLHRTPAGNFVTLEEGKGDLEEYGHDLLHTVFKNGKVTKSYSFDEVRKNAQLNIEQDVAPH
T2 sequence (P18242 65-410): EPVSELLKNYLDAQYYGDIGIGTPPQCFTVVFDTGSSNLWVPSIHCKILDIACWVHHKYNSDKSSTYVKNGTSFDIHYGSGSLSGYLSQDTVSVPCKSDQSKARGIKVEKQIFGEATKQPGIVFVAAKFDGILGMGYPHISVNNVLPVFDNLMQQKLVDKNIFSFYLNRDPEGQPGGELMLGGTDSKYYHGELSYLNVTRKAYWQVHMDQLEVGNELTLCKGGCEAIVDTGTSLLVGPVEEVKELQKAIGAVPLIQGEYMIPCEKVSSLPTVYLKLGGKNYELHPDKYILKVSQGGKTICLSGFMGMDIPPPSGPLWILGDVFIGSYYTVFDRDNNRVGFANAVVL
T7 sequence (Q8CFE6 whole entry): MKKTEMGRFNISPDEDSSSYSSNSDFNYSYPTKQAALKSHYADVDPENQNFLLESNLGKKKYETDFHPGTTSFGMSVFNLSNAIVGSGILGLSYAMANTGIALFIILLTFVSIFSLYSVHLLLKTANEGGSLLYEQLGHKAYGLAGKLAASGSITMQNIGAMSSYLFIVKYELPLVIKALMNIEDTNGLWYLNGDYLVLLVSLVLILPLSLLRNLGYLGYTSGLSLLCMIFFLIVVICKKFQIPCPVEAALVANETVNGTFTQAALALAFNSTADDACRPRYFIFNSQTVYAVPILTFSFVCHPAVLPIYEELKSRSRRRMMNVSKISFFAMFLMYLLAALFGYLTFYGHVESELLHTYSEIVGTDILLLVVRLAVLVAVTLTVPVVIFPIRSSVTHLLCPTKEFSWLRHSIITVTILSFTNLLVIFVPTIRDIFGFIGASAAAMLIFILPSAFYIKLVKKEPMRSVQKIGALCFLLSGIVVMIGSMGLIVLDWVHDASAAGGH
T4 sequence (P62814 whole entry): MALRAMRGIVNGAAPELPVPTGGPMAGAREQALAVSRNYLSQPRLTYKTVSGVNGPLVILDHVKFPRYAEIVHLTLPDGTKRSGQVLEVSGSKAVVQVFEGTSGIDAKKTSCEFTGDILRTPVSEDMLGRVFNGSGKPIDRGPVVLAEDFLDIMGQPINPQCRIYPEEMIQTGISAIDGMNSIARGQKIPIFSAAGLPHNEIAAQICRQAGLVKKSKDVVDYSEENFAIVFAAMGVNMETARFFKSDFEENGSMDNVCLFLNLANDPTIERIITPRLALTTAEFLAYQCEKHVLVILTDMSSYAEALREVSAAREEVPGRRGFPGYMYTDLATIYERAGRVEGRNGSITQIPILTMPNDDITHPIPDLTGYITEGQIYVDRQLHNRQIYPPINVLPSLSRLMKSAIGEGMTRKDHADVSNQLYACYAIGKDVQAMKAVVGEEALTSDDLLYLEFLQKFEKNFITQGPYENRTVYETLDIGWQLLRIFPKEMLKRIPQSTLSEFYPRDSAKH
T5 sequence (P81117 25-420): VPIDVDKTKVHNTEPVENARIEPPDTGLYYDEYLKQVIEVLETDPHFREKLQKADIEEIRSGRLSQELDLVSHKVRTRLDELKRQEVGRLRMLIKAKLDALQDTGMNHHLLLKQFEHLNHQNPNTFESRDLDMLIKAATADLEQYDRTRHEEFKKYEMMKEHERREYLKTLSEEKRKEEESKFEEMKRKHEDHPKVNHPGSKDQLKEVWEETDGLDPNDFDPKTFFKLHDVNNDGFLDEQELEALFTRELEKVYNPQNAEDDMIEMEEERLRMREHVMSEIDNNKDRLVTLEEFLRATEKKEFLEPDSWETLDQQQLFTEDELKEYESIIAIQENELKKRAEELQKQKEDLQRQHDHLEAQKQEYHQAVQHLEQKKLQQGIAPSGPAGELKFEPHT
T1 sequence (P10649 whole entry): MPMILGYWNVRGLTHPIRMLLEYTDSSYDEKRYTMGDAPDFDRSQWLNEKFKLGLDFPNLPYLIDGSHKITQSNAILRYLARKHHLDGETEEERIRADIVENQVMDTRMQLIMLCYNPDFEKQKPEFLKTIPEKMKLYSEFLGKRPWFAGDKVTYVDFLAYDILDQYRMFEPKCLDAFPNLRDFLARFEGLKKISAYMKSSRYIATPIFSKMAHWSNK
T6 sequence (Q8C4B4 whole entry): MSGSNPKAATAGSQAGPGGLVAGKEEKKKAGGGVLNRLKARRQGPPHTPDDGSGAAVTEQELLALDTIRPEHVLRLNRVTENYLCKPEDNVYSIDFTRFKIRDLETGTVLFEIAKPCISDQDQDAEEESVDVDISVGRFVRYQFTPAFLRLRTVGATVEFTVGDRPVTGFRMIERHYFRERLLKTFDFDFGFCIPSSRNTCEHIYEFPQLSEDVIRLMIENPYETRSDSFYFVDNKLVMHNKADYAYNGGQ
T9 sequence (Q99M71 38-224): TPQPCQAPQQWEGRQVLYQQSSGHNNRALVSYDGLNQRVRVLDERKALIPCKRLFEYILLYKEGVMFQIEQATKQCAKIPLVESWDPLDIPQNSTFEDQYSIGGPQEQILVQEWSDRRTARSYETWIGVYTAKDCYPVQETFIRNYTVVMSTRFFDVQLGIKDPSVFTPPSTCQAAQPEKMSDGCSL
T3 sequence (P61205 whole entry): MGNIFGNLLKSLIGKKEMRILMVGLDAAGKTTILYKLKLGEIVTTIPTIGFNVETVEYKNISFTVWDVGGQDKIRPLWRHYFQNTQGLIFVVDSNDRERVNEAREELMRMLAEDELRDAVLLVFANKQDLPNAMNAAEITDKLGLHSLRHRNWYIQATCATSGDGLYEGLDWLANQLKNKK

Take `C#CCCCC1(CC/C=C\C/C=C\C/C=C\CCCC(=O)NCCO)N=N1` [AEA-DA, (5Z,8Z,11Z)-N-(2-hydroxyethyl)-14-(3-(pent-4-yn-1-yl)-3H-diazirin-3-yl)tetradeca-5,8,11-trienamide]: the Times observed was 4 in assay [1]; 12 in [2]; 9 in [3]; 3 in assay [4]; 4 in assay [5]; 3 in assay [6]. In addition, the Times observed in assay [7] came out at 4; in [8] (AEA-DA-modified peptide NAMPT Q99KQ4 175-190, SEQ ID NO 64), 10; in [8] (AEA-DA-modified peptide NAMPT Q99KQ4 303-324, SEQ ID NO 65) it was 2; in assay [9] it was 3; in [10] (AEA-DA-modified peptide SHMT2 Q9CZN7 105-122, SEQ ID NO 101), 9; in [10] (AEA-DA-modified peptide SHMT2 Q9CZN7 161-182, SEQ ID NO 102) it was 3. Also, in [11], the Times observed is reported as 3.
